Here are results for 20 molecules from PubChem BioAssay (NCI).

Molecules are shown by their SMILES.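 All cell lines were grown in 96-well plates and treated with compound for 48 hours. TGI marks complete inhibition of growth.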

Some test systems named below: TK-10 renal; IGROV1 ovarian; SR leukemia; BT-549 breast; K-562 leukemia; SNB-75 CNS; MALME-3M melanoma; PC-3 prostate; MCF7 breast; CCRF-CEM leukemia.
What all share (experiment): inhibition of tumour cell growth, NCI panel, 48 h

As to `O=C(NCCN1CCCCC1)c1ccc(I)cc1`, the TGI with TK-10 renal, with IGROV1 ovarian, in the assay on SR leukemia, with BT-549 breast, in the assay on K-562 leukemia and with SNB-75 CNS was above 100 µM throughout. In addition, the TGI in the assay on MALME-3M melanoma, in the assay on PC-3 prostate, with MCF7 breast and in the assay with CCRF-CEM leukemia was above 100 µM in each case.
`CCCCCCCCCCCCOc1ccc(/C=C/C2=[N+](CCCl)CCO2)cc1`: the TGI with TK-10 renal was above 100 µM; with IGROV1 ovarian, 77.6 µM; in the assay on SR leukemia, 50.9 µM; in the assay with BT-549 breast it was above 100 µM; in the assay with K-562 leukemia it was above 100 µM; with SNB-75 CNS, above 100 µM. For the same molecule, the TGI with MALME-3M melanoma, in the assay with PC-3 prostate, in the assay with MCF7 breast and with CCRF-CEM leukemia was above 100 µM in each case.
With `CC(C)C(C/C=C1/CC(CO)(COC(=O)c2ccccc2)OC1=O)C(C)C` (stereo not given), the TGI was 32.3 µM with TK-10 renal; 38.2 µM in the assay with IGROV1 ovarian; above 100 µM in the assay on SR leukemia; 33.2 µM with BT-549 breast; 48 µM in the assay with K-562 leukemia; 20.3 µM in the assay with SNB-75 CNS. For the same molecule, the TGI in the assay with MALME-3M melanoma stood at 25.1 µM; in the assay with PC-3 prostate it was 28.1 µM; in the assay with MCF7 breast, 39 µM; in the assay with CCRF-CEM leukemia, 43.5 µM.
Consider `O=C(CN1CCOCC1)c1ccc2c(c1)oc(=O)n2CCN1CCCC1`, for which the TGI in the assay with TK-10 renal, in the assay on IGROV1 ovarian, with SR leukemia, in the assay with BT-549 breast, in the assay with K-562 leukemia and with SNB-75 CNS was above 100 µM throughout. The TGI in the assay on MALME-3M melanoma, in the assay on PC-3 prostate, in the assay with MCF7 breast and in the assay with CCRF-CEM leukemia was above 100 µM in each case.
In the case of `CN1C=Cc2nccc3cc4c(c1c23)OCO4`, the TGI in the assay with TK-10 renal was 35.4 µM; with IGROV1 ovarian, above 39.2 µM; with SR leukemia, 10.9 µM; in the assay with BT-549 breast, 7.36 µM; in the assay with K-562 leukemia it was above 100 µM; in the assay on SNB-75 CNS, 5.3 µM. The TGI in the assay on MALME-3M melanoma was 0.836 µM; in the assay on PC-3 prostate it was 40.9 µM; in the assay on MCF7 breast, above 23.6 µM; in the assay with CCRF-CEM leukemia, above 100 µM.
With `CC1(C)C2CC3C4CC5(Nc6ccccc6C5N41)[C@]3(C)CC2=O` (stereo not given in full), the TGI in the assay with TK-10 renal, with IGROV1 ovarian, with SR leukemia, with BT-549 breast, with K-562 leukemia and in the assay with SNB-75 CNS was above 50 µM in each case. Also, the TGI with MALME-3M melanoma, in the assay on PC-3 prostate, with MCF7 breast and with CCRF-CEM leukemia was above 50 µM throughout.
In the case of `O=c1oc2ccc(Cl)cc2cc1-c1cn2ccccc2n1`, the TGI in the assay on TK-10 renal was 35.3 µM; in the assay on IGROV1 ovarian, above 100 µM; with SR leukemia it was above 100 µM; in the assay on BT-549 breast, above 100 µM; in the assay with K-562 leukemia it was above 100 µM; in the assay with SNB-75 CNS it was above 41.3 µM. In addition, the TGI in the assay on MALME-3M melanoma is 23.5 µM; in the assay with PC-3 prostate it was above 100 µM; in the assay on MCF7 breast, 99.2 µM; with CCRF-CEM leukemia, above 100 µM.
Regarding `CN(C)c1ccc(-c2ccc(N(C)C)c3n[se]nc23)c2n[se]nc12`, the TGI in the assay with TK-10 renal, in the assay with IGROV1 ovarian, in the assay with SR leukemia, in the assay with BT-549 breast, in the assay with K-562 leukemia and in the assay with SNB-75 CNS was above 100 µM throughout. Also, the TGI with MALME-3M melanoma, in the assay with PC-3 prostate, in the assay with MCF7 breast and with CCRF-CEM leukemia was above 100 µM throughout.
As to `CC1=CC(C)C(C)N(CCNS(=O)(=O)c2ccc(C)cc2)c2ccccc21` (stereo not given), the TGI is above 82.8 µM in the assay on TK-10 renal; 23.4 µM in the assay on IGROV1 ovarian; above 31.6 µM in the assay on SR leukemia; 31.7 µM in the assay on BT-549 breast; 27.5 µM with K-562 leukemia; 23.4 µM in the assay with SNB-75 CNS. Besides, the TGI with MALME-3M melanoma turned out to be 23 µM; with PC-3 prostate it was 30.5 µM; with MCF7 breast, 19.8 µM; in the assay on CCRF-CEM leukemia it was 25.6 µM.
For the molecule `O=C(O)C1(Cc2ccc3c(c2)CCC3)Cc2ccccc2C1`, the TGI in the assay on TK-10 renal, in the assay with IGROV1 ovarian, in the assay with SR leukemia, in the assay with BT-549 breast, in the assay with K-562 leukemia and in the assay with SNB-75 CNS was above 100 µM each time. For the same molecule, the TGI with MALME-3M melanoma, with PC-3 prostate, with MCF7 breast and in the assay with CCRF-CEM leukemia was above 100 µM throughout.
Take `O=C1NC(=O)/C(=C/c2ccc(S(=O)(=O)N/N=C\C(O)C(O)C(O)C(O)CO)cc2)N1` (stereo not given): the TGI in the assay with TK-10 renal, with IGROV1 ovarian, in the assay on SR leukemia, in the assay with BT-549 breast, in the assay on K-562 leukemia and in the assay with SNB-75 CNS was above 100 µM throughout. For the same molecule, the TGI in the assay with MALME-3M melanoma, with PC-3 prostate, in the assay on MCF7 breast and with CCRF-CEM leukemia was above 100 µM in each case.
On to `COC(=O)[C@@H](Cc1ccccc1)N1O[C@]12CCCC[C@@H]2NC(=O)OC(C)(C)C` (stereo not given in full), for which the TGI in the assay on TK-10 renal is 49 µM; in the assay on IGROV1 ovarian, 27.8 µM; in the assay on SR leukemia, 74.4 µM; in the assay with BT-549 breast, 34.8 µM; in the assay on K-562 leukemia, above 100 µM; in the assay with SNB-75 CNS, 77.3 µM. Besides, the TGI worked out at 56 µM in the assay with MALME-3M melanoma, 84.2 µM in the assay on PC-3 prostate, 28.5 µM in the assay on MCF7 breast and 35.9 µM in the assay with CCRF-CEM leukemia.
As to `COc1cc([C@@]23OC[C@@H]4[C@@H](OC[C@@H]42)c2cc4c(cc23)OCO4)cc(OC)c1OC`, the TGI with TK-10 renal is above 100 µM; in the assay on IGROV1 ovarian, above 100 µM; in the assay on SR leukemia, above 77 µM; with BT-549 breast, above 66.4 µM; with K-562 leukemia, above 100 µM; in the assay with SNB-75 CNS, above 100 µM. The TGI in the assay with MALME-3M melanoma, in the assay with PC-3 prostate, in the assay on MCF7 breast and with CCRF-CEM leukemia was above 100 µM throughout.
In the case of `CN(C)CC1CCCCCCCCCC(CN(C)C)C1=O` (stereo not given), the TGI in the assay on TK-10 renal was above 53.7 µM; in the assay with IGROV1 ovarian it was above 55.8 µM; in the assay with SR leukemia, above 100 µM; with BT-549 breast it was 18.7 µM; with K-562 leukemia, above 38.5 µM; with SNB-75 CNS, above 44.9 µM. The TGI with MALME-3M melanoma was above 65.4 µM; with PC-3 prostate, 19.4 µM; in the assay on MCF7 breast, 24.3 µM; in the assay on CCRF-CEM leukemia it was above 26.4 µM.
In the case of `Oc1cccc2cc(Br)cnc12`, the TGI in the assay with TK-10 renal was above 100 µM; in the assay with IGROV1 ovarian it was 51.5 µM; with SR leukemia, above 52 µM; with BT-549 breast, above 100 µM; in the assay with K-562 leukemia, 16.1 µM; in the assay on SNB-75 CNS, above 83.2 µM. The TGI was above 100 µM with MALME-3M melanoma, above 100 µM in the assay on PC-3 prostate, above 100 µM with MCF7 breast and 7.81 µM with CCRF-CEM leukemia.
Turning to `N#Cc1c(O)cc(=O)n2c1[nH]c1ccccc12`, the TGI with TK-10 renal, in the assay with IGROV1 ovarian, in the assay on SR leukemia, with BT-549 breast, in the assay with K-562 leukemia and in the assay with SNB-75 CNS was above 100 µM throughout. Moreover, the TGI with MALME-3M melanoma, in the assay on PC-3 prostate, with MCF7 breast and in the assay with CCRF-CEM leukemia was above 100 µM throughout.
With `COC(=O)c1c[nH]c2c1-c1cc(C(=O)OCc3ccccc3)n(S(=O)(=O)c3ccc(C)cc3)c1C(=O)C2=O`, the TGI is 4.1 µM in the assay on TK-10 renal; 0.955 µM in the assay with IGROV1 ovarian; 3.51 µM in the assay on SR leukemia; 0.342 µM in the assay on BT-549 breast; above 100 µM in the assay on K-562 leukemia; 0.389 µM with SNB-75 CNS. In addition, the TGI in the assay on MALME-3M melanoma was 0.222 µM; in the assay with PC-3 prostate, 1.19 µM; with MCF7 breast it was 0.379 µM; in the assay on CCRF-CEM leukemia, above 33.3 µM.
For the molecule `COc1cc(S(=O)(=O)Nc2ccc(-c3csc(N4C(=O)C(Cl)C4c4ccccc4)n3)cc2)ccc1Cl` (stereo not given), the TGI is above 100 µM in the assay on TK-10 renal; 22.4 µM with IGROV1 ovarian; above 100 µM in the assay on SR leukemia; 83.2 µM in the assay on BT-549 breast; above 100 µM in the assay on K-562 leukemia; 49.1 µM with SNB-75 CNS. Further, the TGI was 49 µM with MALME-3M melanoma, above 100 µM with PC-3 prostate, above 100 µM with MCF7 breast and above 100 µM in the assay on CCRF-CEM leukemia.
On to `C=CC(Br)(CBr)CCC(Br)C(C)(C)Cl` (stereo not given), for which the TGI turned out to be 6.33 µM with TK-10 renal; 12.8 µM in the assay with IGROV1 ovarian; 3.78 µM in the assay with SR leukemia; 21.8 µM in the assay with BT-549 breast; 5.1 µM with K-562 leukemia; 8.72 µM in the assay with SNB-75 CNS. Further, the TGI was 19.2 µM in the assay with MALME-3M melanoma, 9.1 µM in the assay on PC-3 prostate, 4.89 µM with MCF7 breast and 7.45 µM in the assay with CCRF-CEM leukemia.
For `CC(=O)c1cccc(NC(=O)C(=O)C(c2cnc3ccc([N+](=O)[O-])cc3n2)[N+](=O)[O-])c1` (stereo not given), the TGI in the assay on TK-10 renal, in the assay on IGROV1 ovarian, in the assay with SR leukemia, in the assay on BT-549 breast, in the assay with K-562 leukemia and in the assay with SNB-75 CNS was above 100 µM each time. The TGI in the assay on MALME-3M melanoma, with PC-3 prostate, in the assay with MCF7 breast and in the assay on CCRF-CEM leukemia was above 100 µM each time.
